# Laboratory results: US20260210948A1, “FLUORESCENCE-BASED ASSAY FOR IDENTIFICATION OF PROTAC LIGANDS FOR HECT-TYPE E3 LIGASES” (Purdue Research Foundation, priority 2022, published 2026)
# Columns and labels:
# [1] = system: Rsp5; assay: Iodoacetamide inhibition assay, fluorescence polarization; format: biochemical, yeast (S. cerevisiae); conditions: Rsp5 incubated with iodoacetamide 12.5-500 μM for 1 hour
# Method: Inhibition assays were conducted by first incubating 0.5 μm Rsp5/NEDD4L-Rsp5HYBRID with varying concentration of iodoacetamide (12.5-500 μM) for 1 hour in the reaction buffer (50 mM Tris pH 7.4, 100 mM NaCl, 1 mg/ml BSA). Fluorescence polarization was then measured after adding 0.25 μm E1 enzyme, 0.5 μm UbcH7, 100 μm Ub and 10 μm fluorescein-labeled peptide to the reaction well. The Z-factor (Z′) for the assay was calculated using eight replicates of the positive control (no iodoacetamide addition) and negative control (500 μM iodoacetamide addition). The initial slopes of each of the 16 reactions were calculated, followed by calculation of the positive control and negative control means (μ_+ and μ_−) and standard deviations (σ_+ and σ_−). The mean and standard deviation values were then used to calculate the Z-factor using the following formula (II):
# (§1) All assays were carried out at least in triplicate, at a final reaction volume of 100 μL, and utilizing Grenier 96 well plates (Product no. 655097). Fluorescence polarization was measured using a Synergy H4 Plate Reader (BioTek) using 485 nm excitation and 528 nm emission filters.
# An iodoacetamide inhibition assay to mimic peptide displacement conditions was performed to test robustness and reproducibility. […]
# [2] = system: Rsp5; assay: Peptide-ubiquitination fluorescence polarization assay with Rsp5; format: biochemical, yeast (S. cerevisiae); conditions: Uba1, UbcH7, Rsp5 lacking the C2 domain, ATP and Ub; λex=485 nm; λem=528 nm
# Method: Assays were performed by mixing […] enzyme, 0.5 μm UbcH7, 0.5 μm Rsp5/NEDD4L-Rsp5HYBRID, 100 μM Ub and 10 μM fluorescein-labeled peptide in (50 mM Tris pH 7.4, 100 mM NaCl, 1 mg/ml BSA) buffer. Reaction mixtures were left to equilibrate at room temperature for 10 minutes before taking measurements. Reactions were then started by adding 100 mM ATP. A sample of this reaction was also utilized for SDS-PAGE gel electrophoresis.
# as §1
# Target sequence in this assay (P39940 229-809 limits assumed): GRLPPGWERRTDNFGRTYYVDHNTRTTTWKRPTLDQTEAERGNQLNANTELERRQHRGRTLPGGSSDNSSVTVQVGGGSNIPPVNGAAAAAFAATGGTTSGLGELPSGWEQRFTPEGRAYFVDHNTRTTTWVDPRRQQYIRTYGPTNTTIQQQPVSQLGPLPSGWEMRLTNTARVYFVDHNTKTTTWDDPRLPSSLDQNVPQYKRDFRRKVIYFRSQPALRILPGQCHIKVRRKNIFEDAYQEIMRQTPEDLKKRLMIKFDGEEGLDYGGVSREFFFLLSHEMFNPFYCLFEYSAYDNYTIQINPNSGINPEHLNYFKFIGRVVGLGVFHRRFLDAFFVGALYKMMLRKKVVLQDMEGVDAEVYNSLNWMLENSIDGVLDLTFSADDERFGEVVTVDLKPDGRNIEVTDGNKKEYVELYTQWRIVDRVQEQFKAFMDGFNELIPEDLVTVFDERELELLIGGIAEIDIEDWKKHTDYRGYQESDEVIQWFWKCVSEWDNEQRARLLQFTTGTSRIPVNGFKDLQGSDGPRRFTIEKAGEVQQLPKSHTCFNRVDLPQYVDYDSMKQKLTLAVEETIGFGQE
# A PPxY peptide based on a yeast vesicular snare protein (Sna4) containing the PPxY motif was designed, synthesized, and labeled with fluorescein at the N-terminus. An assay utilizing Uba1 (E1 ubiquitin (Ub)-activating enzyme), UbcH7 (E2 Ub-conjugating enzyme) and Rsp5 ([…] E3 Ub-ligase), which lacked the C2 domain to simplify in vitro screening, in the presence of adenosine triphosphate (ATP) and Ub was performed. Fluorescence polarization (FP) was recorded to monitor ubiquitination of the peptide. […] Ubiquitination of the PPxY peptide was confirmed by SDS-PAGE. […] No fluorescence polarization occurred in the absence of UbcH7, Rsp5, Ub, or ATP.
Compound,rate of peptide ubiquitination (initial slope) [1],fluorescence polarization (ubiquitination of the peptide) [2]
"NC(=O)CI [Iodoacetamide, iodoacetamide]",decreasing the rate of peptide ubiquitination,
"NKQSLVESPPPY [PPxY peptide, peptide mimicking residues 128-138 of yeast Sna4 with PPPY motif, fluorescein labeled on the N-terminus]",,increase in fluorescence polarization
